The values that follow come from EP0533344B1, “Methanoanthracenes as dopamine antagonists” (ZENECA LIMITED, priority 1991, dated 1993).

Read-outs that look alike come from different tables or passages of the source.

In experiment [1] the target is T1, dopamine (DA) D-2 receptor subtype (Rattus norvegicus, UniProt P61169).
T1 construct: Specifically, rat striatal membranes were used; from tissue; host or cells: rat striatum (membranes)
The experiment can be described thus: Test A: dopamine D-2 receptor binding assay, displacement of [3H]-spiperone. From the text: (§1) The compounds of Formula I are antagonists of dopamine D-2 receptors, and as such are predicted to be useful as antipsychotic drugs. D-2 antagonism can be shown by standard tests such as antagonism of [^3H]-spiperone binding (Test A), and/or antagonism of apomorphine-induced climbing and apomorphine- induced disruption of swimming (Test B).
The receptor binding assay used to measure affinities of various compounds for the dopamine (DA) D-2 receptor subtype was that described by Saller and Salama in J Pharmacol Exp Ther 236, page 714, 1986.
Specifically, rat striatal membranes were used. Tissue membranes were prepared and washed once in 50 volumes of the appropriate Tris HCl buffer. For the D-2 receptor binding assay, striatal membranes were suspended to a final concentration of 8 mg/ml in 50 mM Tris HCl with 40 nM ketanserin, pH 7.7. Nonspecific binding to D-2 receptors was measured in the presence of 1.0 µM (+)-butaclamol. IC50s (drug concentration which produced a 50% displacement) for the displacement of 0.5 nM [^3H] spiperone were determined using at least five concentrations of each drug in triplicate. One-half milliliter of membrane suspension was incubated with the compound of interest or vehicle or nonspecific drug, ligand and appropriate Tris HCl buffer. […] The amount of drug bound to the membranes was assessed using liquid scintillation counting techniques. […]

Experiment [2] deals with Female Swiss-Webster mice. The experiment can be described thus: Test B: antagonism of apomorphine-induced climbing and apomorphine-induced disruption of swimming. The following applies: Mus musculus, po, read-out: minimum effective dose. In kind it is in vivo. How it is done: as §1
Female Swiss-Webster mice weighing approximately 20 g were deprived of food for approximately 24 h and then dosed orally with various doses of either the vehicle or test agent over a range of doses (N = 20 mice per treatment group). Thirty minutes later they were dosed with apomorphine HCl at 1.25 mg/kg, sc, and placed into climbing cages. The climbing cages were 9 cm wide, 15 cm deep and 30 cm high. One wall had 27 horizontal rungs spaced 1 cm apart. Thirteen minutes after apomorphine each mouse was observed continuously for 1 min and the highest and lowest rung reached by its front paws was recorded. […] (The highest and lowest scores were 27 and 0, respectively.) Immediately after the 1-min climbing observation period each mouse was placed into a circular swimming tank for 2 min and the number of swims was counted. […] A "swim" was scored each time a mouse swam from one mark to the other. The mice were observed through overhead mirrors and the number of 180 degree swims was recorded for each mouse. […]

T1 sequence (P61169 whole entry): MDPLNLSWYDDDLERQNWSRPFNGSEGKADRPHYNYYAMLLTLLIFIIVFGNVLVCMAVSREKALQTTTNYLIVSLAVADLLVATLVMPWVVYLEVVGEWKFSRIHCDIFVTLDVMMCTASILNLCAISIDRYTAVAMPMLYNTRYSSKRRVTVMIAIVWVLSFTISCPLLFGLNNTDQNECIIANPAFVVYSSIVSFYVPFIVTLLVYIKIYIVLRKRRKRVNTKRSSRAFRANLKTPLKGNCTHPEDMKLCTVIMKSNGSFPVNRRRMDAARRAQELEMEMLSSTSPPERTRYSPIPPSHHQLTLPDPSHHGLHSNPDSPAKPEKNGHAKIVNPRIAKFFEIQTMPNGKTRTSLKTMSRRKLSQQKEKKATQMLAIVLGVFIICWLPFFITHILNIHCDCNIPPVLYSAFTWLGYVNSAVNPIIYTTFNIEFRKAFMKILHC

By IC50 is commonly meant the concentration at which inhibition is half-maximal. On to `OC1(c2cccnc2)CCN(CC23CC(c4ccccc42)c2ccccc23)CC1` [Example 5, 1-(9,10-Dihydro-9,10-methanoanthracen-9-ylmethyl)-4-(3-pyridyl)piperidin-4-ol], for which the IC50 in experiment [1] was found to be 12 nM. Further, in experiment [2], the minimal effective dose was found to be 20 mg/kg.
In the case of `CC(C)(C)C1(O)CCN(CC23CC(c4ccccc42)c2ccc(Cl)cc23)CC1` (stereo not shown) [Example 49, 1-(2-Chloro-9,10-dihydro-9,10-methanoanthracen-9-ylmethyl)-4-(1,1-dimethylethyl)piperidin-4-ol], in experiment [1] (displacement of 0.5 nM [3H] spiperone, rat striatal membranes, 37°C for 15 min, typical result, read-out: IC50), the IC50 stood at 3 nM. Moreover, the minimal effective dose in experiment [2] (dosed orally 30 min before apomorphine HCl 1.25 mg/kg sc, decreased climbing score with increased swimming score, typical result) is 1.3 mg/kg.
